Laboratory results as given in US20060025398A1, “Topical antiviral therapeutic and prophylactic treatment of adenoviruses and their associated diseases” (priority 2003, published 2006).
Entries after “also recorded” stand apart in the source; their conditions may differ.

Legend:
[1] = system: Adenovirus types 1, 2, 3, 4, 5, and 7; experiment: CTC-96 efficacy against several adenovirus serotypes in HeLa cells in tissue culture (viral titers at each drug concentration); type: cell-based, Human Adenoviruses; settings: drug overlaid after 1 hour adsorption, 24 hours, 500, 250, 100, 50, 10 μg/ml
Protocol: Since these human viruses cannot be grown in animal models, this provides an excellent indication of the effectiveness of CTC-96 against a broad spectrum of Adenovirus types. To determine CTC-96 efficacy against several types of serotypes of adevirus the following procedure was followed:
1. Hela cells were confluent at the time of inoculation.
2. Virus dilutions were prepared from the known titers of the stock viruses (4×10^5 pfu/ml; 4×10^4/0.1 ml) of Ad1 Kmetz, Ad2 Wolf, Ad3 Holyfield, Ad4 Harris, Ad7a Joseph, ATCC. This virus inoculation yielded a virus infection with an m.o.i. (multiplicity of infection) of approximately 1.0.
3. 100 µl of each Ad serotype were inoculated onto cultures containing Hela cells.
4. During the adsorption period, Doxovir concentrations of 500, 250, 100, 50, 10, and 0 μg/ml were prepared in culture medium according to the dilution protocol.
5. Virus was adsorbed at 37° C. in a 5% CO2 water-vapor atmosphere for 1 hour.
6. […]
13. Viral titers were determined at each drug concentration. […]
(§1) Anti-adenovirus activity of CTC-96 was evaluated by standard cell culture using HeLa cells, a human cervical carcinoma immortalized cell line (the usual host for laboratory grade adenovirus) and anti-viral plaque-reduction assays.

Human Adenovirus Type 5 [2] = experiment: CTC-96 treatment of Adenovirus induced keratoconjunctivitis in rabbit eyes, clinical grading by slit lamp microscopy; type: in vivo; settings: for progression of disease severity: 21 days, from day 8 post-inoculation
Protocol: (§2) Clinical results and plaque assay viral titers of three CTC-96 treatment/dosing regimens of rabbit eyes infected with Human adenovirus, Adenovirus type 5 (Ad5), were evaluated. On “Day 1” animals were infected with Human Adenovirus Type 5 by the installation of 10^6 pfu adenovirus according to our protocol of conjunctival and corneal scarification for the induction of Keratoconjunctivitis. […] Animals were then randomized and the following experimental groups were treated with CTC-96 or placebo in a double blind experiment: • (1) Placebo (diluent alone), 9×/day, for 21 days: (4 rabbits). • (2) CTC-96 50 μg/ml, 9×/day, for 21 days: (4 rabbits). • (3) CTC-96 50 μg/ml, 6×/day, for 21 days: (4 rabbits). • (4) C T W 25 μg/ml, 6×/day, for 21 bays: (4 rabbits).
Clinical disease progression and resolution were evaluated by slit lamp microscopy on days 1, 3, 7, 10, 13, 18, 21, 24, 28 and 31 after initial drug dosing. The intensity of the keratitis was quantified using a clinical grading system (5).
The data In FIG. 3 were obtained as follows: rabbits were infected with Human Adenovirus Type 5 by the installation 10^6 pfu adenovirus according to our protocol of conjunctival and corneal scarification for the production of Keratoconjunctivitis. On day 8 post-inoculation treatment with eye drops containing CTC-96 or placebo was initiated. Animals were examined for stromal keratitis and scored by the corneal disease scale of Wander et al. (5). The following are the Criteria For Determination Of Conjunctival Disease: […]

Human Adenovirus Type 5 [3] = experiment: Adenovirus recovery from tear film of infected rabbit eyes, plaque assay on HeLa cell monolayers; type: in vivo
Protocol: as §2
The efficacy of CTC-96 treatment of rabbit eyes infected with Human adenovirus, Adenovirus type 5 (Ad5), was also evaluated by adenovirus recovery from tear film cultures adsorbed onto confluent HeLa cell monolayers. […] On day 8 post-inoculation treatment with eye drops containing CTC-96 or placebo was initiated. Adenovirus recovery from tear film was evaluated by plaque assay on confluent HeLa cell monolayers. Data are presented as Average±SD.

[4] = system: human Adenovirus type 5 (Ad5); experiment: Virus titers after exposure of Ad5 infected HeLa cells to CTC-96 (plaque assay); type: cell-based; settings: Ad5 adsorbed onto HeLa monolayers 60 min, then CTC-96 for 24 hr
Protocol: Monolayers were then incubated for 24 hr at 37° C. and 5% CO2. Monolayers were then washed, scraped, sonicated, centrifuged and the supernatant serially diluted. These serial dilutions were plated onto indicator HeLa cell monolayers and adsorbed for 60 min, aspirated and a methylcellulose overlay placed over the cells, which were then incubated for 3 days at 37%. Cultures were counterstained with 1% methylene blue, allowed to dry and the plaques counted. Results am expressed as mean & SD (where error bars are not visible they are contained within data point).

Adenovirus type 5 (Ad5) = experiment: Adenovirus type 5 titers following direct exposure of the virus to CTC-96 prior to HeLa cell infection (plaque assay); type: cell-based; settings: Ad5 incubated with CTC-96 at 37° C. for 60 minutes, diluted 500 fold, HeLa cells
Protocol: as §1
The data graphically depicted in FIG. 1 were obtained as follows: varying concentrations of the CTC-96 were mixed with concentrated Human Adenovirus, [Adenovirus type 5 (Ad5)] and incubated at 37° C. for 60 minutes. Aliquots were then diluted 500 fold into growth medium. Hela cells were exposed to 100 μl of the diluted material to initiate infection. These monolayers were incubated for 24 hours at 37% and 5% CO2 and then washed, scraped, sonicated, centrifuged and the supernatant serially diluted. These serial dilutions were plated onto indicator HeLa cell monolayers and adsorbed for 60 min, aspirated and a methycellulose overlay placed over the cells, which were then incubated for 3 days at 37%. Cultures were counterstained with 1% methylene blue, allowed to dry and the plaques counted. Results are expressed as mean±SD (where error bars are not visible they are contained within data point).

SMILES: CC(/C=C(/C)[O-])=NCCN=C(C)/C=C(/C)[O-].Cc1ncc[nH]1.Cc1ncc[nH]1.[Br-].[Co+3] [CTC-96]
- efficacy against Adenovirus types in culture [1]: effective against types 1, 2, 3, 4, 5, and 7; also recorded: efficacy against Adenovirus types 1, 2, 3, 4, 5, and 7
- complete resolution of clinical disease (day after initial drug dosing) (Human Adenovirus Type 5 [2]; 50 μg/ml 6 times a day for 21 days): ≤ 21 days
- complete resolution of clinical disease (day after initial drug dosing) (Human Adenovirus Type 5 [2]; 50 μg/ml 9 times a day for 21 days): ≤ 21 days
- progression of disease severity (Human Adenovirus Type 5 [2]; topical eye drops 25 μg/ml, 6×/day): prevented progression of disease severity
- progression of disease severity (Human Adenovirus Type 5 [2]; topical eye drops 50 μg/ml, 6×/day or 9×/day): prevented progression of disease severity
- no detectable virus in the eye (Human Adenovirus Type 5 [3]; 50 μg/ml 6 times a day): ≤ 13 days
- no detectable virus in the eye (Human Adenovirus Type 5 [3]; 50 μg/ml 9 times a day): ≤ 13 days
- effect on viral growth in Adenovirus infected cells subsequently exposed to the drug [4]: inhibition of viral growth
- effect on virus growth when virus is exposed to the drug prior to cell infection (Adenovirus type 5 (Ad5)): inhibitory (prophylactic) effect on growth
